# Reference: PubChem BioAssay AID2823 (Broad Institute, 2010)
# Calls of active or inactive are those of the source. No rule for the calls is given here.
# Molecular target: RanGTP-importin-beta complex (human Ran / KPNB1)
# Assay: Ran–importin-beta interaction inhibitors, confirmation, biochemical, FRET, CFP/YFP, cell-free homogeneous (AID 2823)
# Conditions: CFP-Ran/YFP-importin-beta FRET ratio
row,Structure (SMILES),IC50
1,O=C(Oc1c(Br)cc(C(=S)N2CCOCC2)cc1Br)c1ccc(Cl)cc1,> 50 µM (inactive)
2,Cc1nc2ccccc2c2oc(C(=O)NCCCN3CCC(C)CC3)cc12,> 50 µM (inactive)
3,C=CCn1c(N)c(C(=O)OCCC)c2nc3ccccc3nc21,26 µM
4,Cc1nc2ccccc2n1CC(=O)N1CC(=O)Nc2ccccc21,> 50 µM (inactive)
5,COCCNC(=S)N1CCCN(c2nc3cc(C)ccc3cc2C#N)CC1,29.5 µM
6,CN(C)/C=N/c1nc2nccc(-c3cccs3)n2n1,38.5 µM
7,CCC(=O)Nc1ccc(N/C(N)=N/c2nc(C)cc(C)n2)cc1,> 50 µM (inactive)
8,O=c1c2cc(NC(=S)N3CCC(N4CCCCC4)CC3)ccc2nc2n1CCCCC2,> 50 µM (inactive)
9,COc1ccc(CCNc2nc3ccccc3n3nnnc23)cc1OC,40.1 µM
10,CCc1ccc(C2C(C#N)=C(N)SC(N)=C2C#N)cc1,> 50 µM (inactive)
11,Cc1ccc(-c2nnn(CC(=O)N(c3ccccc3)C(C(=O)NCC3CCCO3)c3ccc(Cl)cc3)n2)cc1 (centres undefined),> 50 µM (inactive)
12,CCOC(=O)/C(C#N)=C1/C=Nc2ccccc2N1,> 50 µM (inactive)
13,CCOC(=O)c1[nH]c(C)c(C(=O)N(C)Cc2ccccc2)c1C,> 50 µM (inactive)
14,C[C@H](O)c1[nH]c2cc(F)ccc2c1[C@H](C)O,> 50 µM (inactive)
15,O=C(CCN1CCC(c2ccc(Cl)s2)=N1)c1ccc(Cl)s1,> 50 µM (inactive)
16,CC(C)OC(=O)c1nnn(-c2nonc2N)c1CN1CCCCCC1,> 50 µM (inactive)
17,COc1cc2c(cc1OC)CN(Cc1ccccc1)CC2,> 50 µM (inactive)
18,CCn1c(SCc2nc(-c3ccccc3)no2)nnc1-c1cccs1,> 50 µM (inactive)
19,COc1ccc(-c2nc3ccc(C(=O)NCCCN4CCOCC4)cc3nc2-c2ccc(OC)cc2)cc1,46.4 µM
20,COc1cccc(-c2cc(C(=O)NC3CC3)c3ccccc3n2)c1,> 50 µM (inactive)
21,CCn1c(=O)cc(N2CCOCC2)[nH]c1=O,> 50 µM (inactive)
22,COc1cc(NC(=O)C2CC2)c(OC)cc1NC(=O)c1ccco1,> 50 µM (inactive)
23,COc1ccc(C2c3c(ncn(Cc4ccco4)c3=N)Oc3ccc4ccccc4c32)cc1 (centres undefined),> 50 µM (inactive)
24,CCn1nc(NC(=O)c2ccccn2)c2cc3cccc(C)c3nc21,2.68 µM
25,Cc1nc2ccc(NC(=O)c3nn(CC(C)C)c(=O)c4ccccc34)cc2s1,> 50 µM (inactive)

row,Structure (SMILES),IC50
1,CC(C)c1cc(N2CCN(C(=O)c3ccco3)CC2)n2c(nc3ccccc32)c1C#N,24.7 µM
2,CCOC(=O)CSc1nnc(CSc2nc3sc4c(c3c(=O)[nH]2)CCCC4)n1-c1ccccc1,> 50 µM (inactive)
3,CSc1nc(NCC(C)C)c2c3c(sc2n1)CN(C)CC3,44.2 µM
4,O=S(=O)(Nc1nc2ccccc2nc1-[n+]1cccc(N=C([O-])c2ccccc2Cl)c1)c1ccccc1,6.27 µM
5,N#C/C(=C(/O)CSc1ccccn1)c1nc2ccccc2s1,> 50 µM (inactive)
6,Cc1cccc2cc(C#N)c(NCCNC(=S)NCCCN3CCOCC3)nc12,39.6 µM
7,CCOCCCNC(=O)NC(=O)CN1CCN(S(=O)(=O)c2ccc3c(c2)OCCO3)CC1,> 50 µM (inactive)
8,CCc1ccc(C2C3=C(CC(C)(C)CC3=O)Nc3c2c(=O)[nH]c2nc(C)nn32)cc1 (centres undefined),7.01 µM
9,COCc1cc(CN2CCN(C)CC2)c(O)c2ncccc12,> 50 µM (inactive)
10,S=c1[nH]c2ccc3ccccc3c2[nH]1,> 50 µM (inactive)
11,CCOC(=O)C1(CCc2ccccc2)CCN(Cc2ccccn2)CC1,> 50 µM (inactive)
12,N#Cc1c(N)n(CCOC(=O)c2ccc(Cl)cc2)c2nc3ccccc3nc12,3.68 µM
13,Cc1ccccc1-n1c(=O)cc(N2CCC3(CC2)OCCO3)[nH]c1=O,> 50 µM (inactive)
14,CCOC(=O)c1sc(NC(=O)Nc2ccc(F)cc2)nc1C,> 50 µM (inactive)
15,COc1ccc(Cn2c(O)c(C=Nc3ccc(OC)cc3)c3ccccc3c2=O)cc1,> 50 µM (inactive)
16,COc1ccc(C(=O)C[n+]2ccc(N)c(C)c2C)cc1,> 50 µM (inactive)
17,CCN(CCO)C(=S)Nc1cc(C(=O)OC)ccc1C(=O)OC,> 50 µM (inactive)
18,CCCOC(=S)NC(=O)c1sc2ccccc2c1Cl,> 50 µM (inactive)
19,Cc1ccc(S(=O)(=O)NCCN(CCNS(=O)(=O)c2ccc(C)cc2)S(C)(=O)=O)cc1,> 50 µM (inactive)
20,COc1ccc(C(=O)/C=C(\C)NCc2ccc3c(c2)OCO3)cc1,> 50 µM (inactive)
21,COc1ccc(NC(=O)COC(C)=O)cc1Cl,> 50 µM (inactive)
22,O=C(/C=C/c1ccccc1[N+](=O)[O-])N1CCN(c2ccc(F)cc2)CC1,> 50 µM (inactive)
23,COc1ccc(C2NC(=S)NC3=C2CCCC3=C2SCCS2)cc1 (centres undefined),> 50 µM (inactive)
24,COc1ccc(C(=O)Oc2c(CN3CCOCC3)cc(Cl)c3cccnc23)cc1,> 50 µM (inactive)
25,OCCNc1c2ccccc2nc2c(F)c(F)c(F)c(F)c12,20.9 µM

row,Structure (SMILES),IC50
1,CCN(CC)Cc1c(O)c(Cl)cc2c(C)c(C)c(=O)oc12,21.1 µM
2,Cc1ccc(Nc2cc(C)nn2-c2nc(C)cc(C)n2)cc1,> 50 µM (inactive)
3,COC(=O)C1=CN(C2CC2)C=C(C(=O)OC)C1c1ccc(C(F)(F)F)cc1,30.8 µM
4,O=C(Cc1ccccc1C(=O)O)Nc1cccc2ccccc12,> 50 µM (inactive)
5,Clc1ccc(-c2nnc(SCc3nc4ccccc4[nH]3)o2)c(Cl)c1,> 50 µM (inactive)
6,O=C1NC(=O)N(Cc2ccccc2)C(=O)/C1=C\N1CCCc2ccccc21,> 50 µM (inactive)
7,Cc1cccc(CN2CCc3c(OCC(=O)N4CCCc5ccccc54)cccc3C2=O)c1,> 50 µM (inactive)
8,Cc1cccc(OCC(=O)NNc2c3ccccc3nc3ccccc23)c1,> 50 µM (inactive)
9,N=c1c(S(=O)(=O)c2ccc(Cl)cc2)cc2c(=O)n3ccccc3nc2n1Cc1cccnc1,> 50 µM (inactive)
10,CC(C)Sc1nc(N2CCOCC2)c2c(c1C#N)CC(C)(C)N(C)C2,46.2 µM
11,Oc1cccc(Nc2c3ccccc3nc3ccccc23)c1,> 50 µM (inactive)
12,COc1ccccc1C(=O)NCCNc1nc2cc(C)cc(C)c2cc1C#N,39.5 µM
13,CO/N=C\c1cc(C(=O)c2ccc(Cl)cc2Cl)cn1C,> 50 µM (inactive)
14,COc1cc(SC)ccc1C(=O)Nc1nc(C)cs1,> 50 µM (inactive)
15,CC(C)SCC(=O)Nc1ncc2c(n1)-c1ccccc1CC2,10.1 µM
16,Cc1ccccc1-n1c(=O)cc(N2CC(C)OC(C)C2)[nH]c1=O (centres undefined),> 50 µM (inactive)
17,c1ccc(-n2nnnc2-c2cnc(-c3cccnc3)nc2-c2cccs2)cc1,> 50 µM (inactive)
18,COC(=O)C1=CN(Cc2ccc(OC)c(OC)c2)C=C(C(=O)OC)C1c1ccccc1F,9.77 µM
19,Fc1ccc(N/N=C/C=C/c2ccccc2)c(F)c1,> 50 µM (inactive)
20,CCOC(=O)/C(C#N)=C/c1c(N2CCN(c3ccc(OC)cc3)CC2)nc2c(C)cccn2c1=O,> 50 µM (inactive)
21,CCn1c(=O)cc(N2CCCCC2)[nH]c1=O,> 50 µM (inactive)
22,Clc1ccc(/C=C\c2nccc3c2[nH]c2ccccc23)cc1,> 50 µM (inactive)
23,COc1ccc(C(=O)Nc2sc3c(c2C#N)CCN(C(C)=O)C3)cc1,> 50 µM (inactive)
24,COc1ccccc1/C=C/c1nc(C#N)c(N(C)C)o1,17.4 µM
